Results reported in patent US10143691B2, “Pathogenic control of apoptosis” (CSIR, priority 2014, dated 2018).
Entries after “also recorded” stand apart in the source; their conditions may differ.

What was measured:
H2A.XpSer139 = assay: Immunofluorescence staining of double strand breaks (H2A.XpSer139); type: cell-based; details: HIV-1 infected cells treated with 10 μM drug
Description: (§1) For each experiment, Ghost(3) cells or IPSC-derived primary macrophages were infected or treated with 500 nM Doxorubicin on coverslips, fixed for 10 mins in fresh 4% paraformaldehyde at room temperature, then washed 3 times in PBS and permeabilised for 10 mins in ice-cold methanol at […]. Coverslips were washed once in PBS and incubated in blocking buffer (5% goat serum, 0.3% TritonX100 in PBS) for 60 mins at room temperature. Cells were incubated in primary antibody solution (1% BSA, 0.3% Triton X100 in PBS) overnight at 4° C. Double strand breaks were detected using rabbit polyclonal anti-phosphohistone H2A.X Ser139 (Cell Signaling). Activated ATM was detected using rabbit monoclonal anti-phosphoATM Ser1981 (Cell Signaling). The ability of p53 to regulate apoptosis was detected using rabbit polyclonal antiphosphop53 Ser46 (Cell Signaling). Viral p24 was detected using mouse monoclonal anti-HIV1p24 (AIDS Research and Reference Reagent Program, Division of AIDS, NIAID, NIH). HuR was detected using mouse monoclonal anti-HuR 3A2 (Santa Cruz Biotechnology). hnRNPK was detected using goat polyclonal anti-hnRNPK P20 (Santa Cruz Biotechnology). Coverslips were washed 3 times (5 mins each on an orbital shaker) with wash buffer (0.05% Tween20 in PBS), followed by incubation with secondary antibodies conjugated to either Atto550 or Atto565 or Atto647 for 60 mins at room temperature. Coverslips were washed 3 times (5 mins each on an orbital shaker) with wash buffer (0.05% Tween20 in PBS). Coverslips were incubated in equilibration buffer (0.4% glucose, 2×SCC) for 5 mins and counter stained with 1 mg/ml DAPI (4′,6-diamidino-2-phenylindole; Life Technologies). Coverslips were mounted in glox buffer (3.7 mg/ml glucose oxidase, 1 U catalase) and imaged.
For each experiment, cells were infected or treated with drugs on coverslips, fixed for 10 mins in fresh 4% paraformaldehyde at room temperature, then washed 3 times in PBS and permeabilised for 10 mins in ice-cold methanol at −20° C. Coverslips were washed once in PBS and incubated in blocking buffer (5% goat serum, 0.3% Triton-X100 in PBS) for 60 mins at room temperature. […] Double strand breaks were detected using rabbit polyclonal anti-phospho-histone H2A.X Ser139 (Cell Signaling). Activated ATM was detected using rabbit monoclonal anti-phospho-ATM Ser1981 (Cell Signaling). The ability of p53 to regulate apoptosis was detected using rabbit polyclonal anti-phospho-p53 Ser46 (Cell Signaling). Viral p24 was detected using mouse monoclonal anti-HIV-1-p24 (AIDS Research and Reference Reagent Program, Division of AIDS, NIAID, NIH). HuR was detected using mouse monoclonal anti-HuR 3A2 (Santa Cruz Biotechnology). hnRNP-K was detected using goat polyclonal anti-hnRNP-K P-20 (Santa Cruz Biotechnology). […]

lincRNAp21 = assay: lincRNA-p21 expression by RNA FISH spot counts and quantitative RT-PCR; type: cell-based, human; details: HIV-infected Ghost(3) cells, qRT-PCR relative to HPRT
Description: RNA FISH on Ghost(3) cells was performed according to Raj, 2008 and on primary macrophages according to Schaffer, 2013. For both methods 48 20mer probes (Biosearch) targeted to human lincRNAp21 were synthesised baring a […] C6dT. The amino group was subsequently conjugated to the following NHSester dyes: ATTO565, ATTO647N (ATTOTEC) or Alexa Fluor 647 (Invitrogen). Briefly, oligonucleotide probes were ethanol precipitated and resuspended in 0.1 M sodium tetraborate (Sigma). Approximately 0.3 mg of the NHSester dye (ATTOTEC) was dissolved in dimethyl sulphoxide (Sigma). The dye solution was added to the probe solution and incubated overnight in the dark at 37° C. Following the conjugation reaction, the probes were ethanol precipitated overnight, and resuspended in 0.1 M triethyl ammonium (Sigma). Conjugated probes were separated and purified to enrich for dyeconjugated probes by reverse phase HPLC on a C18 column. […]
For each experiment, Ghost(3) cells or IPSO-derived primary macrophages were infected or treated with 500 nM Doxorubicin over time and total RNA was extracted from cells using TRIzol® (Life Technologies), treated with RQ1 RNase-free DNase (Promega) and reverse transcribed using SuperScript III Reverse Transcriptase (Life Technologies). Quantitative RTPCR was performed using Sso Fast EvaGreen™ supermix (BioRad) on a BioRad CFX96 real-time PCR detection system. […]

hnRNP-K = assay: Immunofluorescence of hnRNP-K cellular location in Ghost(3) cells; type: cell-based; details: Ghost(3) cells exposed to HIV-1 and concurrently treated with 10 μM antiretroviral
Description: as §1
For each experiment, cells were infected or treated with drugs on coverslips, fixed for 10 mins in fresh 4% paraformaldehyde at room temperature, then washed 3 times in PBS and permeabilised for 10 mins in ice-cold methanol at −20° C. Coverslips were washed once in PBS and incubated in blocking buffer (5% goat serum, 0.3% Triton-X100 in PBS) for 60 mins at room temperature. Cells were incubated in primary antibody solution (1% BSA, 0.3% Triton X-100 in PBS) overnight at 4° C. Double strand breaks were detected using rabbit polyclonal anti-phospho-histone H2A.X Ser139 (Cell Signaling). Activated ATM was detected using rabbit monoclonal anti-phospho-ATM Ser1981 (Cell Signaling). The ability of p53 to regulate apoptosis was detected using rabbit polyclonal anti-phospho-p53 Ser46 (Cell Signaling). Viral p24 was detected using mouse monoclonal anti-HIV-1-p24 (AIDS Research and Reference Reagent Program, Division of AIDS, NIAID, NIH). HuR was detected using mouse monoclonal anti-HuR 3A2 (Santa Cruz Biotechnology). hnRNP-K was detected using goat polyclonal anti-hnRNP-K P-20 (Santa Cruz Biotechnology). Coverslips were washed 3 times (5 mins each on an orbital shaker) with wash buffer (0.05% Tween-20 in PBS), followed by incubation with secondary antibodies conjugated to either Atto-550 or Atto-565 or Atto-647 for 60 mins at room temperature. Coverslips were washed 3 times (5 mins each on an orbital shaker) with wash buffer (0.05% Tween-20 in PBS). Coverslips were incubated in equilibration buffer (0.4% glucose, 2×SCC) for 5 mins and counter stained with 1 mg/ml DAPI (4′,6-diamidino-2-phenylindole; Life Technologies). Coverslips were mounted in glox buffer (3.7 mg/ml glucose oxidase, 1 U catalase) and imaged.

HIV-1 = HIV-1 infection/replication in Ghost(3) reporter cells (LTR-driven GFP expression); type: cell-based; details: Ghost(3) cells exposed to HIV-1 and treated
Description: Viral stocks were titred using TZMBI cells and used to infect Ghost(3) cells using an MOI=1.0, or IPSO-derived macrophages using an MOI=0.5. Where indicated, Ghost(3) cells were treated with 10 μM of either Raltegravir, Maraviroc, Tenofovir (AIDS Research and Reference Reagent Program, Division of AIDS, NIAID, NIH) or Nutlin3a (Sigma) for up to 48 hours.
Viral stocks were titred using TZM-BI cells and used to infect Ghost(3) cells using an MOI=1.0, or IPSO-derived macrophages using an MOI=0.5. Where indicated, cells were treated with 10 μM of either Raltegravir, Maraviroc, Tenofovir (AIDS Research and Reference Reagent Program, Division of AIDS, NIAID, NIH) or Doxorubicin (Sigma-Aldrich), or Nutlin3a (Sigma-Aldrich), or MAP2K1 inhibitor (U-0126) or ERK2 inhibitor (FR180204) for up to 48 hours.

`Cc1nnc(C(=O)NC(C)(C)c2nc(C(=O)NCc3ccc(F)cc3)c(O)c(=O)n2C)o1` [Raltegravir] was tested, and the “H2A.X staining in HIV-infected cells” value (H2A.XpSer139) was “abrogate this effect”, the lincRNA-p21 expression (lincRNAp21) was “no change in lincRNAp21 expression; also recorded: does not affect lincRNAp21 expression” and the “cellular location of hnRNP-K” value (hnRNP-K) was “no nuclear hnRNPK over time; also recorded: cytoplasmic hnRNPK”. The “HIV-1 infection / replication (GFP expression)” value (HIV-1) was “no GFP expression”.
